The values below come from US10927136B2, “Phosphorus prodrugs of pyrazolo-substituted pyrimidine sGC stimulators” (Cyclerion Therapeutics, Inc., priority 2016, dated 2021).

Data set [1] is described as follows: Rat PK following intravenous and oral dosing. Format: in vivo, male Sprague-Dawley rats.
The target in another data set is T1, sGC enzyme (Homo sapiens, UniProt Q02108+Q02153).
T1 construct: sGC enzyme activity values in HEK cells, determined by the GloSensor assay; host or cells: HEK293 expressing GloSensor 40F cGMP
T1 sequence (Q02153 1-619): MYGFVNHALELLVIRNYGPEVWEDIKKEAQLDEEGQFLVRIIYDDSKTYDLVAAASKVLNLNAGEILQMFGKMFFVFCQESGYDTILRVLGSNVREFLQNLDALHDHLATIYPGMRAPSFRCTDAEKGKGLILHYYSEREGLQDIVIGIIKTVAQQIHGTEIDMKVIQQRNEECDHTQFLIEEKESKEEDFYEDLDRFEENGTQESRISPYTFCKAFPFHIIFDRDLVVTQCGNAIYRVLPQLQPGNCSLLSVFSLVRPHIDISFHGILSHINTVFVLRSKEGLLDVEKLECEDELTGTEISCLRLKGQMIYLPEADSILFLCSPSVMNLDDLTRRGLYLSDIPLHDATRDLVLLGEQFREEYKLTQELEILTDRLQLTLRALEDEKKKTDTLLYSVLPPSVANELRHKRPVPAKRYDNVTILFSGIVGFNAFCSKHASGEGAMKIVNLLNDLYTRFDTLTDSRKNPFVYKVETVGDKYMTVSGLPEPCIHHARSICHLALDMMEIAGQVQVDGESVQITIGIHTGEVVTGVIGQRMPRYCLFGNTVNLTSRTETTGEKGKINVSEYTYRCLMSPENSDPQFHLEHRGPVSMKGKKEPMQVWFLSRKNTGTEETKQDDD
T1 sequence (Q02108 1-690): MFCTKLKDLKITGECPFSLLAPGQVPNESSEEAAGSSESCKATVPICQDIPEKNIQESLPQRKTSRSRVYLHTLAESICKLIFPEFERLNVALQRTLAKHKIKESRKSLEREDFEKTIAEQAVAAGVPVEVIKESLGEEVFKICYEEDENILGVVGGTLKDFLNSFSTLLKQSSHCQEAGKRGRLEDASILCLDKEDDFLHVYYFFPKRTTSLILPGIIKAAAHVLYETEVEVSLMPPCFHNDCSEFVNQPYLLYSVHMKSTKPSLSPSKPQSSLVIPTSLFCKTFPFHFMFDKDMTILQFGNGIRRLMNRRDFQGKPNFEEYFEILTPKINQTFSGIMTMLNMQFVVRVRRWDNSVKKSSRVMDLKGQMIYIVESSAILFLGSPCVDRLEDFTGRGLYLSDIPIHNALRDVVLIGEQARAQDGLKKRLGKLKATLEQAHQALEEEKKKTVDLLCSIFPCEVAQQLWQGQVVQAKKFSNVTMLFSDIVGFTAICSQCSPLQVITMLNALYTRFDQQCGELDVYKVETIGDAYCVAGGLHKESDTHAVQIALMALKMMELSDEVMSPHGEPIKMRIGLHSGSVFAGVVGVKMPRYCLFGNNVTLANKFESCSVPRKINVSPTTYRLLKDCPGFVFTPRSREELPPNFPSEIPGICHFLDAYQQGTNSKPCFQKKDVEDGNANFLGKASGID
The data set is described as follows: cGMP GloSensor cell-based assay, 384-well format. The following applies: for EC50: HEK293 GloSensor 40F cGMP cells, 10 μM DETA-NONOate, read-out: Absolute EC50. An excerpt:
Human embryonic kidney cells (HEK293) cells expressing GloSensor™ 40F cGMP (Part No: CS182801, Promega) were used to evaluate the activity of test compounds. The luminescent biosensors (engineered luciferase) that were incorporated into these cells detect cGMP formed by the compounds stimulating the sGC enzyme and emit luminescence.
cGMP GloSensor cells were maintained in Dulbecco's Modification of Eagle's Medium (DMEM) supplemented with fetal bovine serum (FBS, 10% final) and hygromycine (200 ug/ml). The day before assay, cells were plated in DMEM with 10% FBS in a 50 μL volume at a density of 1.5×10^4 cells/well in a poly-D-lysine coated 384-well flat white-bottom plate (Corning Cat. No. 35661). Cells were incubated overnight at 37° C. in a humidified chamber with 5% CO2. The next day, medium was removed and cells were replaced with 40 ul/well of GloSensor™, 2 mM (Promega Cat No E1291). Cells were treated for 90 minutes at 25° C. to allow the substrate to equilibrate in the cells. Test compounds and Diethylenetriamine NONOate (DETA-NONOate) was diluted to 3 mM (20×) in serum-free CO2 independent medium and serially diluted at 4× dilutions to create 5× dose curve from which 10 ul was added to the wells (x μM concentration for test compound solution and 10 μM concentration for DETA-NONOate solution; wherein x is one of the following final concentrations).
For the kinetics studies, luminescence was measured right away for 0.2 sec per well with Envision (Perkin Elmer). For endpoint SAR screening, data were collected after 55 min incubation at room temperature.
Data analysis was carried out as indicated above in Example 2A.
sGC enzyme activity values in HEK cells, determined by the GloSensor assay, expressed as Absolute EC50 which is defined as the concentration at which a given compound elicits 50% of the high control response obtained with Compound Y, after normalization.

Where [2] appears, read: plasma, Intermediate 3 dosed 1 mg/kg IV in PEG.
[3] abbreviates: plasma, Intermediate 3 dosed 3.0 mg/kg PO.

Like-named read-outs stand apart in the source and are kept apart here.

For `O=P(O)(O)OC(CNc1nc(-c2cc(-c3ccon3)n(Cc3ccccc3F)n2)ncc1F)(C(F)(F)F)C(F)(F)F` [Compound I-1], the “Vol. of Dist” value in data set [1] (Compound I-1 1 mg/kg IV in PBS, analyte Compound I-1) worked out at 4.4 ± 2.6 L/kg. At sGC enzyme (GloSensor assay), the “sGC agonism as compared to parent drug” value was “did not exhibit a high degree of sGC agonism”. Besides, at sGC enzyme (prodrug), the EC50 (commonly the midpoint of the concentration-response curve) came to 4840 nM.
With `OC(CNc1nc(-c2cc(-c3ccon3)n(Cc3ccccc3F)n2)ncc1F)(C(F)(F)F)C(F)(F)F` [Intermediate 3], the “Vol. of Dist” value in data set [1] (Intermediate 3 dosed 1 mg/kg IV in PEG) came out at 9.5 L/kg. Also, the “Bioavail. (%)” value in data set [1] (Intermediate 3 dosed 3.0 mg/kg PO) amounted to 102%. Also, in data set [1] (setting [2]), the AUC(0-inf) (usually total exposure, with the tail of the curve extrapolated) was 1100 ng·h/mL; the Cmax (usually the highest concentration seen after dosing) was 227 ng/mL; the clearance amounted to 16 mL/min/kg. Also, in data set [1] (setting [3]), the AUC(0-t) (in general, the area under the concentration-time curve up to a stated or last time point) amounted to 3600 ± 280 ng·h/mL; the Cmax was found to be 250 ± 10 ng/mL; the time of peak concentration (Tmax) (commonly the time from dosing to the highest level) was 8 h. In data set [1] (plasma, iv, 1 mg/kg, Intermediate 3 dosed 1 mg/kg IV in PEG), the half-life (usually the time in which the quantity being followed falls by half) was 7.1 h. The EC50 on sGC enzyme (Parent compound column) worked out at 72 nM.
